# According to patent US9975911B2, “Antibacterial compounds and biological applications thereof” (LABORATOIRE BIODIM, priority 2012, dated 2018):
# Where two headings read alike, the source gives them in different places.
# What was measured:
# E. coli C7 (O18:K1:H7) = assay: Combination with antibiotics on E. coli C7 (MIC of the antibiotics); format: cell-based; details: in the presence of 100 μM G6P; for MIC of the antibiotic alone: without test compound
# Experimental: Combination with Antibiotics on E. coli C7 (018:K1:H7):
# The compound to be tested was diluted in 50 mM HEPES buffer pH 7.4 from 10 mM stock solution. 5 μL of compound dilution or buffer were distributed in a sterile clear round bottom 96-well polystyrene microplate (Corning). 5 μL of serial 2-fold dilutions of reference antibiotics (Erythromycin (Fluka), Rifampicin (Fluka), or Synercid® (Monarch Pharmaceuticals)) in DMSO were added. An exponentially growing preculture of E. coli C7 (O18:K1:H7) in LB was diluted to 1e4 cfu/mL and supplemented with 100 μM G6P, and 90 μL of this suspension were added to the microplates. After overnight incubation at 37° C., the minimal inhibitory concentration (MIC) of the antibiotics were determined for each test compound concentration, as the lowest antibiotic concentration for which no bacterial pellet is visible without magnification.
# [1] = tested on: E. coli C7 (018:K1:H7) LPS heptosylation; assay: Inhibition of E. coli C7 (018:K1:H7) LPS biosynthesis (LPS gel electrophoresis, Re-LPS band); format: cell-based; details: read-out: EC50 of E. coli C7 LPS heptosylation inhibition
# Experimental: Inhibition of E. coli C7 (018:K1:H7) LPS Biosynthesis:
# The inner core contains several heptose residues. An inhibitor of the LPS heptosylation pathway should therefore reduce dramatically the size of LPS from full-length to the so-called ‘Re-LPS’ limited to lipid A branched with 2 Kdo residues.
# The effect of heptosylation inhibitors on E. coli LPS was assessed as described below. The compounds to be tested were prepared in deionised water/DMSO (50/50) solutions and added (25 μL) in sterile culture microtubes. The strain used in this study was E. coli C7 (018:K1:H7). The bacteria were isolated on tryptic soy agar (TSA) overnight. Isolated colonies were cultured in 10 mL of Luria-Bertani medium (LB) at 37° C. up to an optical density (OD) of typically 0.15. These exponentially growing bacteria were finally diluted to 5e5 cfu/mL and added in each well (225 μL) for incubation with the compounds at 37° C. for approximately 5 hours, up to an optical density of ≈0.2-0.4. Some test compounds e.g. phospho-sugars required Glucose-6-Phosphate (G6P, from Sigma) to be added in the culture medium in order to activate their active transport into the bacterial cytosol via the phospho-sugar transporter UhpT. This was achieved by adding in the culture tube 2.5 μL of a 10 mM water solution of G6P (100 μM final concentration).
# Bacterial cultures were normalized via OD determination, pelleted and washed with 1 mL Phosphate-Buffer-Saline (PBS). The pellets were then denatured for 10 min at 95-100° C. in 50 μL of Sodium dodecyl sulphate 0.2% (SDS), beta-mercaptoethanol 1%, Glycerol 36%, Tris pH 7.4 30 mM and bromophenol blue 0.001%. Samples were cooled down to room temperature, supplemented with 1.5 μl of proteinase K at 20 mg/mL, incubated for 1 hour at 55° C. and centrifuged for […] at 13,000 rpm at 25° C. The resulting supernatant, containing LPS, was finally analysed by SDS-PAGE electrophoresis.
# LPS SDS-PAGE Electrophoresis:
# Polyacrylamide gels (16%/4% acrylamide for separation and concentration respectively) were prepared, loaded with 8 μL of LPS extracts and migrated.
# Gels were incubated overnight in 5% acetic acid/40% ethanol/deionised water, treated by 1% periodic acid/5% acetic acid for 15 min, washed 4 times for 10 min in deionised water and finally incubated for 18 min in the dark in a silver nitrate solution composed of 56 mL NaOH 0.1N, 4 mL ammoniac 33%, 45 mL AgNO3 5% (Tsai and Frasch) and 195 mL deionised water. Gels were then washed extensively in deionised water for 30 min and incubated for 10-15 min (up to LPS bands apparition) in the revelation mix composed of 300 mL deionised water, 300 μL formaldehyde 36.5% (Fluka) and 100 μL citric acid 2.3M. The revelation was stopped by incubating the gels in acetic acid 10% for 5 min. Gels were finally washed in deionised water, numerized with a Samsung PL51 camera and analysed by ImageJ software. The percentage of inhibition of LPS heptosylation was defined as the relative area of the Re-LPS band compared to the cumulated areas of Re-LPS and Core-LPS bands.
# GmhA of E. coli = GmhA of E. coli (Escherichia coli, UniProt P63224); assay: Inhibition of the enzymatic activity of GmhA (luminescent assay); format: biochemical
# Experimental: Inhibition of the Enzymatic Activity of GmhA (Luminescent Assay):
# The assay buffer “AB” contained 50 mM Hepes pH7.5, 1 mM MnCl2, 25 mM KCl, 0.012% Triton-X100, 1 mM dithiothreitol (DTT) and 0.1 μM Myelin basic protein (MBP). The following components were added in a white polystyrene Costar plate up to a final volume of 30 μL: 10 μL inhibitor dissolved in DMSO/water 50/50, and 20 μL GmhA of E. coli in AB. After 30 min of pre-incubation at room temperature, 30 μL of Substrates mix in AB were added in each well to a final volume of 60 μL. This reaction mixture was then composed of 2 nM GmhA, 3 μM sedoheptulose-7-phosphate (Sigma), 3 μM ATP (Sigma) and 50 nM HldE of E. coli in assay buffer. After 30 minutes of incubation at room temperature, 100 μL of the revelation mix were added to a final volume of 160 μL, including the following constituents at the respective final concentrations: 10000 light units/mL luciferase (Sigma), 20 μM D-luciferin (Sigma), 100 μM N-acetylcysteamine (Aldrich). Luminescence intensity was immediately measured on Luminoskan (Thermofisher) and converted into inhibition percentages. For IC50 determinations, the inhibitor was tested at 6 to 10 different concentrations, and the related inhibitions were fitted to a classical Langmuir equilibrium model using XLFIT (IDBS).
# [2] = test compound at concentrations <1 mM
# GmhA of E. coli, sequence (P63224 whole entry): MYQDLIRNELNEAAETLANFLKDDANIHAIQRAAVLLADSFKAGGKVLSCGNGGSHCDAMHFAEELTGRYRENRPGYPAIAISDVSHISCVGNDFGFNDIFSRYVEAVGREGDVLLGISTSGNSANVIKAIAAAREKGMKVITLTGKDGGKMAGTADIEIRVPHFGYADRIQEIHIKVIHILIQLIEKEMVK
smiles,measurement,setting,value
"CO[C@H]1/C=C/O[C@@]2(C)Oc3c(C)c(O)c4c(O)c(c(/C=N/N5CCN(C)CC5)c(O)c4c3C2=O)NC(=O)/C(C)=C\C=C\[C@H](C)[C@H](O)[C@@H](C)[C@@H](O)[C@@H](C)[C@H](OC(C)=O)[C@@H]1C [rifampicin, Rifampicin, reference compound]",MIC of the antibiotic alone,E. coli C7 (O18:K1:H7),4 µg/mL
"CC[C@H]1OC(=O)[C@H](C)[C@@H](O[C@H]2C[C@@](C)(OC)[C@@H](O)[C@H](C)O2)[C@H](C)[C@@H](O[C@@H]2O[C@H](C)C[C@H](N(C)C)[C@H]2O)[C@](C)(O)C[C@@H](C)C(=O)[C@H](C)[C@@H](O)[C@]1(C)O [erythromycin, Erythromycin, reference compound]",MIC of the antibiotic alone,E. coli C7 (O18:K1:H7),32 µg/mL
"O=CN(O)C[C@H](O)[C@H](O)[C@H](O)COP(=O)([O-])O.[Na+] [Example 2, N-hydroxy-N-formylamino-1-deoxy-D-ribitol-5-phosphate]",EC50,[1]; Escherichia coli,18 µM
same,IC50,GmhA of E. coli; read-out: IC50 GmhA E. coli,0.0024 µM
same,MIC of Synercid in combination with the compound,E. coli C7 (O18:K1:H7); [2],8 µg/mL
same,MIC of erythromycin in combination with the compound,E. coli C7 (O18:K1:H7); [2],1 µg/mL
same,MIC of rifampicin in combination with the compound,E. coli C7 (O18:K1:H7); [2],0.25 µg/mL
same,potentiation of Synercid,E. coli C7 (O18:K1:H7); [2],16 fold
same,potentiation of erythromycin,E. coli C7 (O18:K1:H7); [2],32 fold
same,potentiation of rifampicin,E. coli C7 (O18:K1:H7); [2],16 fold
"O=CN(O)C[C@H](O)[C@H](O)[C@H](O)CC(F)P(=O)(O)O (stereo partly drawn) [Example 9, [1-Fluoro-6-(formyl-hydroxy-amino)-(3R,4R,5S)-3,4,5-trihydroxy-hexyl]-phosphonic acid]",EC50,[1]; Escherichia coli,76 µM
same,IC50,GmhA of E. coli; IC50 GmhA E. coli,0.015 µM
"O=CN(O)C[C@H](O)[C@H](O)[C@H](O)CCP(=O)(O)O [Example 3, [6-(Formyl-hydroxy-amino)-(3R,4R,5S)-3,4,5-trihydroxy-hexyl]-phosphonic acid]",EC50,[1]; Escherichia coli,18 µM
same,IC50,GmhA of E. coli; IC50 GmhA E. coli,0.003 µM
"O=CN(O)C(CO)[C@H](O)[C@H](O)[C@H](O)CCP(=O)(O)O (single isomer, unassigned) [Example 7]",EC50,[1]; Escherichia coli,220 µM
same,IC50,GmhA of E. coli; read-out: IC50 GmhA E. coli,0.046 µM
"O=CN(O)C(CO)[C@H](O)[C@H](O)[C@H](O)CCP(=O)(O)O (single isomer, unassigned) [Example 8]",EC50,[1],180 µM
same,IC50,GmhA of E. coli; read-out: IC50 GmhA E. coli,0.027 µM
